# Reference: patent publication US9796674B2, “Benzyl urea derivatives for activating TGF-beta signaling” (THE BOARD OF TRUSTEES OF THE LELAND STANFORD JUNIOR …, priority 2013, dated 2017)
# “Also recorded” adds a separate entry of the source.
# Assays:
# [1] = PAMPA double sink permeability assay; type: in vitro ADME; settings: pH 7.4, 6.2, 5.0, read-out: sum of the permeability coefficients (Pe)
# Experimental: (§1) Permeability Assays: PAMPA screens, both for absorption from the gut and through blood brain barrier, were used as a first tier screen for this program. SRI-011381 was evaluated in the double sink assay format and the sum of the permeability coefficients at three pH values (7.4, 6.2, 5.0) was calculated (Pe) to be 781×10^−6 cm/s, which is consistent with an orally available compound.
# (§2) Permeability PAMPA: The PAMPA assay was used to predict oral bioavailability of compounds. The PAMPA determines the permeability of compounds across a biological membrane using a synthetic lipid membrane and detection by UV absorbance. […] The PAMPA-BBB assay was performed, to predict permeability to the blood brain barrier, as an aqueous assay and as a co-solvent assay. In this assay the composition of the lipid membrane included brain-derived lipids, mimicking the BBB membrane.
# [2] = system: mouse J774A.1 macrophages; assay: Fibrillar Aβ clearance by J774A.1 macrophages; type: cell-based; settings: 24 h, 2, 5, or 10 μM
# Experimental: (§3) SRI-011381 promotes Aβ clearance in cell culture: TGF-β1 promotes Aβ clearance in a microglia cell line. To test whether SRI-011381 has similar properties, mouse J774A.1 macrophages and human macrophages differentiated from THP-1 monocytic cell lines were treated with fibrillar Aβ in the absence or presence of compound (2, 5, or 10 μM) for 24 h. Conditioned medium was harvested and the remaining Aβ that was not phagocytosed by macrophages was quantified by Aβ ELISA.
# (§4) FIGS. 4A and 4B present data from experiments in which human macrophages differentiated from THP-1 monocytic cell lines and mouse J774A.1 macrophages were incubated with fibrillar Aβ in the absence or presence of compound (2 or 5 μM) for 24 h. Conditioned medium was harvested and the remaining Aβ was quantified by Aβ ELISA. The collected medium (FIGS. 4C-4D) was added to N2A-APP-Swe cells (mouse Neuro-2A neuroblastoma cells stably expressing Swedish APP695) and incubated for 24 h. Neurotoxicity was quantified by an MTS Assay.
# (§5) Mouse J774A.1 macrophages and human macrophages that were differentiated from THP-1 monocytic cell lines were treated with fibrillar Aβ42 in the absence or presence of SRI-011382 or its derivative compounds (2, 5, or 10 μM) for 24 h. Conditioned medium was harvested and the remaining Aβ42 that was not phagocytosed by macrophages was quantified by Aβ42 ELISA kit (Invitrogen). […]
# [3] = system: GFAP-luc mice; assay: Kainic acid lesion in GFAP-luc mice, bioluminescence; type: in vivo, mouse; settings: kainic acid 20 mg/kg
# Experimental: FIGS. 5A-5B show GFAP-luc mice (2-month-old) lesioned with kainic acid (20 mg/kg). Bioluminescence was recorded longitudinally at indicated time points in each mouse. Representative images showing increased bioluminescence signals over the brain after kainic acid injury (left panel) and the reduction by SRI-011381 (381) treatment (right panel) (FIG. 5A). Bioluminescence is expressed as fold induction over baseline, which was measured 1 day before kainic acid administration for each mouse (FIG. 5B). Bars are mean±SEM (n=4-7 mice). The mice were sacrificed 5 days later. Brains were removed, fixed with paraformaldehyde, sectioned and stained with cresyl violet, or immunohistochemical methods. […] Bars are mean±SEM (n=4-7 mice/group) and the asterisk signifies P<0.05 by unpaired t test.
# [4] = system: human macrophages differentiated from THP-1 monocytic cell lines; assay: Fibrillar Aβ clearance by THP-1 macrophages; type: cell-based; settings: 24 h, 2, 5, or 10 μM
# Experimental: as §3, §4, §5
# [5] = system: N2A-APP-Swe cells; assay: Neurotoxicity of macrophage-conditioned medium (MTS assay); type: cell-based, mouse
# Experimental: as §4
# Mouse J774A.1 macrophages and human macrophages that were differentiated from THP-1 monocytic cell lines were treated with fibrillar Aβ42 in the absence or presence of SRI-011382 or its derivative compounds (2, 5, or 10 μM) for 24 h. Conditioned medium was harvested and the remaining Aβ42 that was not phagocytosed by macrophages was quantified by Aβ42 ELISA kit (Invitrogen). Data was normalized to control medium containing the input amount of Aβ42. Neurotoxicity induced by fibrillar Aβ42 in the conditioned medium was then assessed by incubating Neuro-2a neuroblastoma cells with conditioned medium for 24 h followed by MTS-based viability assay. Data was normalized to control cells without fibrillar Aβ42 treatment.
# [6] = Solubility; type: physicochemical; settings: aqueous buffer; in PBS
# [7] = PAMPA-BBB permeability assay; type: in vitro ADME
# Experimental: as §1, §2
# [8] = system: CYPs 1A2, 2B6, 2C9, 2C19, 2D6, 3A4; assay: CYP inhibition in human liver microsomes; type: in vitro ADME; settings: 1 and 10 μM, significant = >30% reduction in activity
# From the text: CYP Inhibition: SRI-011381 was screened for CYP inhibition, an indicator of potential drug interactions. […] Thus, this compound is unlikely to cause clinically relevant interactions due to effects on co-administered drugs metabolized by these hepatic enzymes.
# Drug Interactions (GYP inhibition): GYPs are major enzymes involved in drug metabolism and this assay is used to screen the inhibitory potential of test compounds on in vitro CYP activity, and help predict potential drug interactions due to inhibition of metabolism of one drug by another. This assay was performed by incubating test compounds with human liver microsomes and model CYP substrates (i.e., phenacetin (CYP1A2), bupropion (CYP2B6), diclofenac (CYP2C9), mephenytoin (CYP2C19), bufuralol (CYP2D6), testosterone (CYP3A4), and midazolam (CYP3A4)). Control incubations containing compounds known to inhibit specific CYPs were also included and incubated in the same manner as the test compounds (i.e., furafylline (CYP1A2), thioTEPA (CYP2B6), sulfaphenazole (CYP2C9), tranylcypromine (CYP2C19), quinidine (CYP2D6), and ketoconazole (CYP3A4)). The data is expressed as ‘% of control’, where the controls consist of the model substrates incubated with microsomes (no test compounds or inhibitors).
# [9] = Cytotoxicity in VERO cells; type: cell-based; settings: African green monkey, read-out: LC50 (the source's name)
# Experimental: (§6) In Vitro Cytotoxicity: The cytotoxicity of SRI-011381 was determined in primary rat hepatocytes and in VERO cells.
# Cytotoxicity: In vitro cytotoxicity assays are used to estimate the relative toxicity of test compounds, e.g. a set of chemical analogs prior to efficacy screening. To estimate “basal” toxicity, a cell line such as VERO cells are typically used. Additional factors including drug metabolism can alter the relative toxicity of a compound in vivo. Primary cultures from liver (either laboratory species or human) can be used to assess the relative toxicity of compounds where metabolism may be a factor.
# [10] = Cytotoxicity in primary rat hepatocytes; type: cell-based; settings: rat
# Experimental: as §6
# Rat hepatocytes were isolated by collagenase perfusion and allowed to form a monolayer overnight. The test compounds were added to the cells in 5 concentrations up to 250 μM. Cells were incubated with the test article for 20 h and then toxicity determined by the MTT cytotoxicity screen. Toxicity was evaluated against the vehicle control (DMSO) and a positive control, amitriptylin, was included with each experiment.
compound,measurement,setting,value
"O=C(NC1CCCCC1)N(Cc1ccccc1)CC1CCNCC1 [SRI-011381, 1-Benzyl-3-cyclohexyl-1-(piperidin-4-ylmethyl)urea]",Papp,[1],781 ×10⁻⁶ cm/s
same,fibrillar Aβ clearance,[2],promoted fibrillar Aβ clearance; also recorded: promoted fibrillar Aβ42 clearance
same,fibrillar Aβ clearance,[2]; listed as SRI-11381,promote fibrillar Aβ42 clearance
same,bioluminescence signals over the brain after kainic acid injury,[3],reduction
same,fibrillar Aβ clearance,[4],promoted fibrillar Aβ clearance; also recorded: promoted fibrillar Aβ42 clearance
same,fibrillar Aβ clearance,[4]; listed as SRI-11381,promote fibrillar Aβ42 clearance
same,fibrillar Aβ42-induced neurotoxicity,[5]; medium conditioned by J774A.1 macrophages,protect human neuronal cells from fibrillar Aβ42-induced neurotoxicity
same,fibrillar Aβ42-induced neurotoxicity,[5]; medium conditioned by THP-1 macrophages,protect human neuronal cells from fibrillar Aβ42-induced neurotoxicity
same,solubility,[6],5200 µg/mL
same,PAMPA-BBB Pe,[7],4.2±2.2 ×10^−6 cm/s
same,Papp,"[7]; PAMPA, read-out: PAMPA-BBB Pe",4.2 ± 2.2 ×10⁻⁶ cm/s
same,CYP inhibition,[8],did not inhibit any CYP activity significantly
same,CC50,[9],167 µM
same,CC50 at 20 h,[10],> 100 µM
